Data on five compounds can be found in ChEMBL document CHEMBL1201862, “PubChem BioAssay data set” (2004).

Each structure is given as a SMILES string. Calls of active or inactive are those of the source.

The target of one assay is Bcl-2-like protein 1 (Homo sapiens, UniProt Q07817). The experiment in a line: BCL-XL inhibitors, dose response, selectivity assay for MCL1 inhibitor project, biochemical, fluorescence polarization, 1536-well (AID 2218). On the technique in general: In fluorescence polarisation assays a small probe gives low polarisation when free and higher when bound to something large.

In assay [1] the target is T1, Induced myeloid leukemia cell differentiation protein Mcl-1 (Homo sapiens, UniProt Q07820). The assay is described as follows: MCL1-BIM BH3 interaction inhibitors, dose response, biochemical, fluorescence polarization, BIM-BH3 peptide, 1536-well (AID 2217).
For assay [2], the target named is T2, Bcl-2-related protein A1 (Mus musculus, UniProt Q07440).
T2 sequence (Q07440 whole entry): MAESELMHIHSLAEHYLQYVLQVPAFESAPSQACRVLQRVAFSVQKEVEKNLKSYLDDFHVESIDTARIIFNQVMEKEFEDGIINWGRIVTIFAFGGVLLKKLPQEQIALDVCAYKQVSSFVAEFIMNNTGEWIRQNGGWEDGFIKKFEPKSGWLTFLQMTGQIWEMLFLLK
The assay is described as follows: Bfl-1 inhibitors blocking BH3 peptide binding, confirmation, biochemical, TR-FRET, mouse Bfl-1 (AID 621).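 Also: TR-FRET binding of GST-Bfl-1 to FITC-labelled Bid peptide via terbium antibody.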

For assay [3], the target named is T2, Bcl-2-related protein A1. The experiment in a line: Bfl-1 binding inhibitors, SAR follow-up, biochemical, fluorescence polarization (AID 1070).
Assay [4] addresses Eukaryotic translation initiation factor 4E (Mus musculus, UniProt P63073). The experiment in a line: eIF4E–eIF4G protein interaction inhibitors, dose response, biochemical, TR-FRET (AID 855).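 Also: potency for disrupting eIF4E binding to eIF4GI seen as loss of FRET.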 In kind it is functional. (In TR-FRET formats the signal depends on donor and acceptor labels being close together.)
Assay [5] concerns the target T3, Small ubiquitin-related modifier 2 (Homo sapiens, UniProt P61956). The experiment in a line: inhibitors of SUMO2 protein-protein interaction, dose response, selectivity assay for SUMO1 interaction inhibitor project, biochemical, FRET, human SUMO2, uHTS hits (AID 624384). The class given is functional. The note with it: read-out: IC50_Mean.
The target of assay [6] is T4, Small ubiquitin-related modifier 1 (Homo sapiens, UniProt P63165). The assay is described as follows: inhibitors of SUMO1 peptide binding, dose response, biochemical, fluorescence polarization, uHTS hits (AID 624382). The class given is functional. Particulars: read-out: IC50_Mean.
Assay [7] has as its target T3, Small ubiquitin-related modifier 2. The assay is described as follows: SUMO2–SIM peptide binding inhibitors, dose response, selectivity assay for SUMO1 interaction inhibitor project, biochemical, fluorescence polarization, uHTS hits (AID 624385). In kind it is functional. The note with it: read-out: IC50_Mean.
The target in assay [8] is T4, Small ubiquitin-related modifier 1. The experiment in a line: inhibitors of SUMO1 partner interactions, dose response, biochemical, FRET (AID 624383). The note with it: read-out: IC50_Mean. In kind it is functional.
Assay [9] has as its target Acetyl-CoA acetyltransferase/HMG-CoA reductase (Enterococcus faecalis, UniProt Q9FD70). The experiment in a line: inhibitors of E. faecalis class II HMGR, confirmation, biochemical, Enterococcus faecalis (AID 1233). In kind it is functional.
Assay [10] addresses T1, Induced myeloid leukemia cell differentiation protein Mcl-1. The class given is functional.
Another assay concerns the target Genome polyprotein (Hepatitis C virus, UniProt Q2Q167). The assay is described as follows: HCV core protein dimerization inhibitors, dose response, biochemical, TR-FRET (AID 2159).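 Also: blocks dimerization of HCV core protein measured by TR-FRET between tagged core106 pairs.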 Also on record: species or system Hepacivirus hominis.
A short description of assay [11]: P. falciparum late gametocyte killing, dose response, luminescence (AID 1117278).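 Also: gametocytes exposed to compound for 24 hours.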 The class given is functional, cell-based.
A short description of assay [12]: Jurkat T cell cytotoxicity, dose response, cytotoxicity control for P. falciparum gametocyte viability project, luminescence (AID 1117277).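 Also: potency reflects loss of cellular ATP meaning fewer viable cells.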 In kind it is functional, cell-based.
Assay [13] in a line: Luminescent dose response cell-based high throughput screening assay for inhibitors of the Janus kinase 2 mutant JAK2V617F. [Related pubchem assays: 1446 (Primary screen.), 1521 (Confirmation assay.), 1486 (Counter screen.)]. In kind it is functional.
Assay [14] deals with Streptococcus sp. 'group A'. The assay is described as follows: growth inhibition of control SK(-) GAS strain, dose response, counter-screen for streptokinase expression inhibitor project, luminescence, kanamycin, BacTiterGlo, confirmation (AID 1900). The class given is functional, organism-based. (Counterscreens check selectivity or assay interference.)
The target in a further assay is T5, Streptokinase A (Streptococcus pyogenes serotype M1, UniProt P10520).
T5 sequence (P10520 whole entry): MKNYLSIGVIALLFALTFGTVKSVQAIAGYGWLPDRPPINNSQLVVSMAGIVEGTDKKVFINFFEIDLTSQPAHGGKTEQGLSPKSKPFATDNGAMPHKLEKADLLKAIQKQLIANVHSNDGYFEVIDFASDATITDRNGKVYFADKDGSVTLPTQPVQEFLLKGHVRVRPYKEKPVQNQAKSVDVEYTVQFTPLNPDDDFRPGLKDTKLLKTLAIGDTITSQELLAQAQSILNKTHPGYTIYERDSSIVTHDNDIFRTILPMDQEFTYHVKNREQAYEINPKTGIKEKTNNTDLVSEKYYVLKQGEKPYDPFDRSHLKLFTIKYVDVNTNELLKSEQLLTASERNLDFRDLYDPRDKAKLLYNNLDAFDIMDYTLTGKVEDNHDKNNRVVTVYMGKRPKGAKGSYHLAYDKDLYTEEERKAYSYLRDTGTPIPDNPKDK
The experiment in a line: S. pyogenes streptokinase expression inhibitors, potency, dose response, plasminogen activation absorbance, OD405 (AID 1914).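 Also: secreted streptokinase activity via plasminogen activation per viability signal from cell pellet.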 The class given is functional, Streptococcus pyogenes M1 GAS.

Another assay concerns Streptococcus. The assay is described as follows: Group A Streptococcus viability loss, dose response, counter-screen for streptokinase expression inhibitor project, luminescence, BacTiterGlo (AID 1915).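 Also: potency for reduction of bacterial viability or growth.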 In kind it is functional, organism-based.

T1 sequence (Q07820 whole entry): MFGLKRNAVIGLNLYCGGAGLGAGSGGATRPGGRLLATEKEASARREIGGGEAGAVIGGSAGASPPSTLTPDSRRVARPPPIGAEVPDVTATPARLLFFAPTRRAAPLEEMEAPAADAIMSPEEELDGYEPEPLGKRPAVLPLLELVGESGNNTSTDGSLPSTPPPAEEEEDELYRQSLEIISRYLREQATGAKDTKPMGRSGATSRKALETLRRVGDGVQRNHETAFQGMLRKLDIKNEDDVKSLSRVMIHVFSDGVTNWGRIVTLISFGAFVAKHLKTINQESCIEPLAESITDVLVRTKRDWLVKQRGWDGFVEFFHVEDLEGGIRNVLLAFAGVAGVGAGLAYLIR
T3 sequence (P61956 whole entry): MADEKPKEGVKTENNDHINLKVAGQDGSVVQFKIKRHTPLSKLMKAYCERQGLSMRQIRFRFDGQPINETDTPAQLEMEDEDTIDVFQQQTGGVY
T4 sequence (P63165 whole entry): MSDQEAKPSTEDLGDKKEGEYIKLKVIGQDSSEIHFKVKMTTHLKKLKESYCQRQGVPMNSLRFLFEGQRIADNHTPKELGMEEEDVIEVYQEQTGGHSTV
Eukaryotic translation initiation factor 4E, sequence (P63073 whole entry): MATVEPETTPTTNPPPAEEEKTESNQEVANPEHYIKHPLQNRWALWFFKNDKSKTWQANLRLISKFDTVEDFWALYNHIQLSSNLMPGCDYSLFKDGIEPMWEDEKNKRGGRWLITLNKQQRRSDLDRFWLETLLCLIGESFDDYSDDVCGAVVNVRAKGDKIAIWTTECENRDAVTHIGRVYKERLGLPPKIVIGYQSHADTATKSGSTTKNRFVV
Genome polyprotein, sequence (Q2Q167 whole entry): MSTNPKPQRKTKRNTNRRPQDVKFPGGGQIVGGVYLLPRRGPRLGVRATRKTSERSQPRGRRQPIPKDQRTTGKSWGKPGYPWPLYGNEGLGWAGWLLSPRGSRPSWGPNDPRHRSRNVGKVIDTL
Bcl-2-like protein 1, sequence (Q07817 whole entry): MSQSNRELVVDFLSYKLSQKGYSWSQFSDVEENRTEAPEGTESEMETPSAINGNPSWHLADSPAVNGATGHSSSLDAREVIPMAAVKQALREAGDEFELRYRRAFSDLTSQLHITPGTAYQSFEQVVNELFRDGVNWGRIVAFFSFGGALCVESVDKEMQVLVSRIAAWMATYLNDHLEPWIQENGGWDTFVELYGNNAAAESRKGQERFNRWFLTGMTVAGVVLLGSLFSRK

With `Cc1ccc(-c2csc3ncn(CC#N)c(=O)c23)cc1C`, the IC50 (on Bcl-2-like protein 1; in [1]) was > 109 µM (not active) throughout.

In the case of `C[C@H]1CN(C2=C(Cl)C(=O)N(c3ccc(Cl)c(Cl)c3)C2=O)CCN1`, the IC50 was 1.25 µM (active) on Bcl-2-related protein A1 [2] and 1.32 µM (active) at Bcl-2-related protein A1 [3].

In the case of `O=C(CSc1nc(-c2ccccc2)nc2c1Cc1ccccc1O2)Nc1ccc(C(=O)O)cc1`, the IC50 in assay [4] was 17.1 µM (active); in assay [5] it was 6.38 µM (active); in assay [6], 23.1 µM (inactive); in assay [7], 35.1 µM (inactive); in [8], 5.3 µM (active); in assay [9] it was 164 µM (active).

Consider `CCN(CC)S(=O)(=O)c1ccc(N2CCOCC2)c(NC(=O)c2c3c(nc4ccccc24)CCC3)c1`, for which the IC50 in [10] is 5.07 µM (active); against Genome polyprotein it was > 49.8 µM (not active); in assay [11], > 109 µM (inactive); in assay [12], > 83.3 µM (inactive).

The EC50 is the concentration giving half of the maximal effect. Take `O=C(Oc1cccc2c(O)cccc12)c1ccccc1`: the IC50 in [13] is 7.47 µM (active). The EC50 in [14] was 29 µM (active); on Streptokinase A, 63.7 µM (active); with Streptococcus, > 150 µM (not active).
